In patent publication US9481667B2, “Salts and solid forms of isoquinolinones and composition comprising and methods of using the same” (Infinity Pharmaceuticals, Inc., priority 2013, dated 2016):
In brackets after ≈: the same amount, converted by molar mass. Structures can show the parent of a compound that is named as a salt. Each block holds one molecule with its values, some of them ahead of it.

Tests used:
Assay type in all cases: physicochemical
[1] = Thermodynamic aqueous solubility
[2] = Storage at 25° C./93% RH (solid-state stability); details: for Stability on storage at 25° C./93% RH: 1 week, solid form by XRPD; for Storage 25° C./93% RH for 1 week: HPLC Purity / Storage 25° C./93% RH for 1 week: XRPD (D8): 0.5 g scale-up salts
[3] = Storage at 40° C./75% RH (solid-state stability); details: for Stability on storage at 40° C./75% RH: 1 week, solid form by XRPD; for Storage 40° C./75% RH for 1 week: HPLC Purity / Storage 40° C./75% RH for 1 week: XRPD (D8): 0.5 g scale-up salts
Description: The crystalline solids were filtered, dried at ambient conditions, and stored at 40° C./75% RH for 1 week and analyzed by ^1H NMR/IC.
Samples from the screen using amorphous free base Compound 1 were analysed by ^1H-NMR and DSC, and re-analysis by XRPD was also carried out after drying at 50° C./vacuum and storage at 40° C./75% RH (the same sample was dried and stored at elevated humidity).

[4] = 2-Week comparative stability studies; details: 2 weeks; 5° C. (closed); ambient (closed); ambient (closed-exposed to light); ambient (open); 60° C. (closed); RT/75% RH (open); 40° C./75% RH (open)
Description: (closed); (ii) ambient (closed); (iii) ambient (closed-exposed to light); (iv) ambient (open); (v) 60° C. (closed); (vi) RT/75% RH (open); and (vii) 40° C./75% RH (open).

Dissolution = details: in 15 min at pH 1.2
Description: The dissolution rate for the hydrate was about 80% in 15 min at pH 1.2 and about 20% in 60 min at pH 2.5. The dissolution rate of the bis-sulfuric acid salt was 100% in 15 min at both pH 1.2 and pH 2.5.

[5] = Stability of Hydrate Form 2 of free base: maturation in water or acetic acid:water; details: 40 hours
[6] = Gravimetric vapour sorption (GVS); details: for GVS: moisture content reached on uptake at 40-50% RH: remains stable on sorption up to 90% RH and on desorption down to 10% RH; for XRPD post GVS (C2): 0.5 g scale-up salts; for GVS Single cycle: hygroscopicity, 0-90% RH
Description: Sorption isotherms were obtained using a Hiden IGASorp moisture sorption analyser, controlled by CFRSorp software. The sample temperature was maintained at 25° C. by a Huber re-circulating water bath. The humidity was controlled by mixing streams of dry and wet nitrogen, with a total flow rate of 250 ml/min. The relative humidity (RH) was measured by a calibrated Vaisala RH probe (dynamic range of 0-95% RH), located near the sample. The weight change, (mass relaxation) of the sample as a function of % RH was constantly monitored by the microbalance (accuracy ±0.001 mg). Typically 10-20 mg of sample was placed in a tared mesh stainless steel basket under ambient conditions. The sample was loaded and unloaded at 40% RH and 25° C. (typical room conditions). A moisture sorption isotherm was performed as outlined below (2 scans giving 1 complete cycle). The standard isotherm was performed at 25° C. at 10% RH intervals over a 0-90% RH range.
The software uses a least squares minimisation procedure together with a model of the mass relaxation, to predict an asymptotic value. The measured mass relaxation value must be within 5% of that predicted by the software, before the next % RH value is selected. The minimum equilibration time was set to 1 hour and the maximum to 4 hours. The sample was recovered after completion of the isotherm and re-analysed by XRPD.

[7] = Stability of Hydrate Form 2 of free base: maturation in water or acetic acid:water; details: 40 hours; remark: listed apart in the source
Description: Both solids obtained from maturation at 25° C.

[8] = Solubility assessment using free base Hydrate Form 2
Description: The best solvent systems (clear solutions) were methanol:anisole 1:1 and DMSO (10 volumes, at RT), dioxane (10 volumes, 50° C.), chloroform (20 volumes, RT). […]

[9] = Polymorph screen: maturation (temperature cycling RT/50° C.) in solvents
Description: One of 21 solvents was added to each vial in a number of aliquots (up to 30 volumes), with shaking. All the samples were then placed under maturation between RT to 50° C. (4 hours at each temperature) for 3 days. After maturation the samples were analysed by XRPD. Clear solutions were cooled to −20° C. (freezer). If no precipitation occurred samples were evaporated at RT.
Samples were placed under maturation between RT-50° C. (4 hours cycle) for 3 days. After maturation the samples were analyzed by XRPD. Clear solutions were then cooled to −20° C. (freezer). If no precipitation occurred, samples were evaporated at RT.
Bis-Sulfuric acid salt Form 1 of Compound 1 (ca. 35 mg) was weighed into vials. The corresponding solvents and solvent mixtures were added in portions of (a total of) 5, 10, 20, and 30 volumes at 50° C., with shaking, aiming for clear solutions. After each addition, the vials were allowed to shake for 20 minutes, after which observations were made. Solutions were allowed to evaporate, whereas slurries were set for 8 hour temperature cycling maturation, between RT and 50° C., for 5 days.
The oils obtained by solvent evaporation were used for the maturation screen. Anhydrous solvents (5 volumes; 100 μL) were used in order to minimise the amount of water present. Any solutions were allowed to slowly evaporate, whereas slurries were set for 8 hour temperature cycling maturation, between RT and 50° C. After 24 hours, most oils had not mixed with the solvents, and these were scratched with a spatula, producing slurries. These were matured for a further 24 hours before performing XRPD analysis.
Amorphous free base Compound 1 (ca. 25 mg) was weighed into vials. The selected solvents and solvent mixtures (5 to 20 volumes) were added with stirring. Any solutions were allowed to slowly evaporate, whereas slurries were set for 8 hour temperature cycling maturation, between RT and 50° C., for 2 days.
Crystals were ground in order to analyse them by XRPD. Suspensions were set for temperature cycling for a total of five days after which time XRPD analysis was carried out. […] Similar to the screen in Example 20, these XRPD patterns show slight differences (FIG. 37). However, solids from both screens obtained from the same solvent show a matching XRPD pattern, also supporting that this is a series of isostructural solvates. […]

[10] = Density and flowability (Hausner ratio, Carr index)
Source text: The Hausner ratio and the Carr index are correlated to the flowability of a powder or granular material. […] The flowability of both salts are acceptable for manufacturing.

[11] = listed as Compound 1 Free Base Form 2

- solubility thermodynamic ([1]; aqueous, water, thermodynamic from solid, at pH 6.47): 5 µg/mL (≈ 10.2 µM)
- Stability on storage at 25° C./93% RH [2]: stable
- Stability on storage at 25° C./93% RH [2, 11]: Very slight changes after 1 week
- Stability on storage at 40° C./75% RH [3]: stable
- Stability on storage at 40° C./75% RH [3, 11]: Very slight changes after 1 week
- Change of water content (KF) [4]: No significant change of water content
- dissolution rate (Dissolution; listed as Form 2 of free base hydrate): about 80%
- Solid form (XRPD) after maturation ([5]; pure water, 90° C., listed as Hydrate Form 2 of free base of Compound 1): Form 2
- GVS: moisture uptake on loading between 40-50% RH [6]: 1 % w/w
- GVS: moisture on loading ([6]; loaded at 40% RH, 25° C., listed as Compound 1 Free Base Form 2): 4.7% w/w moisture on loading. Immediate
- GVS: moisture content reached on uptake at 40-50% RH ([6]; listed as Free base Form 2): 5.7 % w/w
- Solid form (XRPD) after maturation ([7]; acetic acid:water 1:3, 25° C.): stable
- Solid form (XRPD) after maturation ([7]; acetic acid:water 1:3, 25° C., listed as Hydrate Form 2 of free base of Compound 1): unchanged Form 2
- Solid form (XRPD) after maturation ([7]; pure water, 25° C.): stable
- Solid form (XRPD) after maturation ([7]; pure water, 25° C., listed as Hydrate Form 2 of free base of Compound 1): unchanged Form 2
- solvent volumes giving a clear solution ([8]; 2-methyltetrahydrofuran): 50 volumes
- solvent volumes giving a clear solution ([8]; DCM): 100 volumes
- solvent volumes giving a clear solution ([8]; DCM:methanol 1:1): 100 volumes
- solvent volumes giving a clear solution ([8]; DME): 100 volumes
- solvent volumes giving a clear solution ([8]; DMSO, at RT): 10 volumes
- solvent volumes giving a clear solution ([8]; THF): 100 volumes
- solvent volumes giving a clear solution ([8]; THF:5% water): 50 volumes
- solvent volumes giving a clear solution ([8]; acetonitrile/5% water): 100 volumes
- solvent volumes giving a clear solution ([8]; chloroform, RT): 20 volumes
- solvent volumes giving a clear solution ([8]; dioxane, 50° C.): 10 volumes
- solvent volumes giving a clear solution ([8]; ethanol:anisole): 50 volumes
- solvent volumes giving a clear solution ([8]; methanol): 100 volumes
- solvent volumes giving a clear solution ([8]; methanol:anisole 1:1, at RT): 10 volumes
SMILES: COc1cc(-c2cccc3cc([C@H](C)Nc4nc(N)ncc4C#N)n(-c4ccccc4)c(=O)c23)ccn1 [Form 2 of the free base of Compound 1, (S)-2-amino-4-((1-(8-(2-methoxypyridin-4-yl)-1-oxo-2-phenyl-1,2-dihydroisoquinolin-3-yl)ethyl)amino)pyrimidine-5-carbonitrile]
- Stability on storage at 25° C./93% RH ([2]; listed as Free base Form 2): mainly the same pattern with a few differences
- Stability on storage at 40° C./75% RH ([3]; listed as Free base Form 2): mainly the same pattern with a few differences
- Solid form (XRPD) after maturation ([5]; acetic acid:water 1:3, 90° C.): some evidence of the acetic acid solvate Form 6 mixed with a majority of Form 2
- GVS: moisture content reached on uptake at 40-50% RH [6, 11]: moisture uptake (40-50% RH up to 5.7% w/w)

- Storage 25° C./93% RH for 1 week: HPLC Purity [2]: HPLC Purity: Unchanged
- Storage 25° C./93% RH for 1 week: XRPD (D8) [2]: XRPD (D8): Unchanged
- Storage 40° C./75% RH for 1 week: HPLC Purity [3]: HPLC Purity: Unchanged
- Storage 40° C./75% RH for 1 week: XRPD (D8) [3]: XRPD (D8): Unchanged
- Stability on storage at 40° C./75% RH [3]: stable
- Stability on storage at 40° C./75% RH ([3]; listed as bis-sulfuric acid salts): stable
- Solid form after maturation of slurries ([9]; slurries in 30 volumes of solvent, RT/50° C. cycling, five days (all experiments other than acetic acid/water, methanol, ethanol/water)): did not show any changes
- Change of water content (KF) [4]: No significant change of water content
- dissolution rate (Dissolution; listed as Form 1 of bis-sulfuric acid salt monohydrate): 100%
- XRPD post GVS (C2) [6]: Unchanged
- GVS Single cycle ([6]; 25° C.): Slightly hygroscopic
- Flowability compared to the hydrate [10]: improved flowability
SMILES: COc1cc(-c2cccc3cc([C@H](C)Nc4nc(N)ncc4C#N)n(-c4ccccc4)c(=O)c23)ccn1 [Form 1 of the sulfuric acid salt of Compound 1] [(S)-2-amino-4-((1-(8-(2-methoxypyridin-4-yl)-1-oxo-2-phenyl-1,2-dihydroisoquinolin-3-yl)ethyl)amino)pyrimidine-5-carbonitrile]

- XRPD (C2) post Aqueous solubility ([1]; solid after thermodynamic aqueous solubility): FB pattern 2
- Storage 25° C./93% RH for 1 week: HPLC Purity [2]: HPLC Purity: 99.8% Peak Area
- Storage 25° C./93% RH for 1 week: XRPD (D8) [2]: XRPD (D8): Unchanged
- Storage 40° C./75% RH for 1 week: HPLC Purity [3]: HPLC Purity: 99.8% Peak Area
- Storage 40° C./75% RH for 1 week: XRPD (D8) [3]: XRPD (D8): Unchanged
- Stability on storage at 40° C./75% RH [3]: stable
- Stability on storage at 40° C./75% RH ([3]; listed as mono-maleic acid salt): stable
- Salt stability on maturation in solvents ([9]; RT to 50° C., 3 days, Ethanol, 2-Propanol, 1-Propanol, Acetone, THF, 2-Propanol/Water (90/10 v/v), EtOH/Water (90/10 v/v), Acetic acid/Water (25/75 v/v): free base recrystallized): tendency to dissociate
- Change of water content (KF) [4]: No significant change of water content
- dissolution rate (Dissolution; listed as Form 1 of mono-maleic acid salt): 100%
- XRPD post GVS (C2) [6]: Unchanged
- GVS Single cycle ([6]; 25° C.): Slightly hygroscopic
- Flowability compared to the hydrate [10]: improved flowability
SMILES: COc1cc(-c2cccc3cc([C@H](C)Nc4nc(N)ncc4C#N)n(-c4ccccc4)c(=O)c23)ccn1 [Form 1 of the maleic acid salt of Compound 1] [(S)-2-amino-4-((1-(8-(2-methoxypyridin-4-yl)-1-oxo-2-phenyl-1,2-dihydroisoquinolin-3-yl)ethyl)amino)pyrimidine-5-carbonitrile]
